This note sets out measurements from patent US12116356B2, “N-heterocyclic five-membered ring-containing capsid protein assembly inhibitor, pharmaceutical composition thereof, and use thereof” (CHIA TAI TIANQING PHARMACEUTICAL GROUP CO., LTD., priority 2018, dated 2024).

The term solubility denotes the concentration that dissolves in the medium under given conditions. As a reminder, the CC50 is the concentration that lowers cell viability or growth by half. High values mean better tolerance by the cells, low ones harm at low concentration. In general, EC50 refers to the concentration at which the effect is half-maximal.

A short description of series [1]: Solubility in PBS buffer at pH 7.4. It is filed as physicochemical. The note with it: aqueous buffer, PBS buffer pH 7.4, 25° C. On the procedure:
[…] After standing at 25° C. for 16 hours, the system was centrifugated (12000 rpm, room temperature) for 10 min. 20 μL of the supernatant was taken out, and the reaction was terminated with 400 μL of acetonitrile containing an internal standard (diazepam 20 ng/mL). 30 μL of the supernatant was pipetted, and 150 μL of 50% acetonitrile aqueous solution was added thereto for dilution and mixed uniformly. 0.5 μL of the resulting solution was injected for analysis.

Series [2] can be described thus: Stability of human liver microsomes in vitro. It is filed as in vitro ADME. Here is the method:
(§1) 300 μL of a final incubation system contains 30 μL of liver microsomes (protein concentration: 0.15 mg/mL), 30 μL NADPH+MgCl2, 3 μL substrate (formulated with acetonitrile), and 237 μL PBS buffer. Duplicate incubation systems of 0.3 mL each were formulated for each species. A total volume of 270 μL of a uniformly mixed solution of the substrate and the enzyme was formulated in each tube, the solution and NADPH were pre-incubated at 37° C. for 5 minutes, respectively. Then 30 μL of the mixed solution of NADPH+MgCl2 was added for reaction. 50 μL of the reaction solution was taken out at 0, 10, 30, and 60 mins, and the reaction was terminated with 300 μL of ice acetonitrile containing an internal standard.
(§2) Sample pre-treatment: To 50 μL of the incubated sample was added 300 μL of ice acetonitrile containing diazepam as an internal standard and then precipitated. After vortexing for 5 minutes, the sample was centrifugated (12000 rpm, 4° C.) for 10 minutes. 75 μL of the supernatant was pipetted into a 96-well plate, and then diluted with 75 μL ultrapure water and mixed uniformly. 0.5 μL of the resulting solution was injected and analyzed by LC-MS/MS.

Series [3] can be described thus: Stability of mouse liver microsomes in vitro. The class given is in vitro ADME. Here is the method:
as §1, §2
In general terms: Microsomes from liver hold many membrane-bound enzymes, among them those of drug oxidation.

The nature of series [4]: In vitro cytotoxicity (CCK-8) in HepG2.2.15 cells. The class given is cell-based. To be noted: human. On the procedure: (§3) A bottle of HepG2.2.15 or HepAD38 cells in good exponential growth state was taken, washed once by adding 5 mL PBS, and then thereto was added 3 mL trypsin. The sample was digested in a cell culture incubator, and taken out from time to time and observed under a microscope. When the cells just fell off, 1 mL trypsin was discarded. The residual liquid was placed in a cell culture incubator at 37° C. and digested for 8-15 min. The cells were taken out and observed under a microscope (whether the cells were individually round and there was no adhesion between the cells). 5 mL MEM medium was added for cell resuspension. The cells were then subjected to cell counting with a cell counter, diluted with a complete medium, and adjusted to a cell density of 2*10^5 cells/mL. Then the cells were seeded at 100 μL/well in a 96-well plate with a multi-channel pipette (the 96-well plate was coated with 50 μg/mL Collagen I solution in advance), and cultured in a constant temperature CO2 incubator for 24 h. The cells were treated by drug administration, and fresh medium containing the compound was used to replace the spent medium every 3 days. To control wells was added a drug-free medium containing 0.5% DMSO, and a control well containing a common medium was set up. 6 days after the administration, CCK-8 was added at 10 μL/well. After 1 to 2 hours, the absorbance was detected with microplate reader at 450 nm, and the inhibition rate and the CC50 were calculated.

The nature of series [5]: Stability of rat liver microsomes in vitro. It is filed as in vitro ADME. On the procedure:
as §1, §2

Series [6] relates to HBV DNA in HepG2.2.15 cells. Put plainly: In vitro cell HBV DNA inhibitory activity (anti-HBV activity) in HepG2.2.15 cells. It is filed as cell-based. The note with it: Hepatitis B virus, 144 h; anti-HBV activity in HepG2.2.15 cells, 6 days treatment, intracellular capsid HBV DNA by qPCR; read-out: EC50. On the procedure:
(§4) A bottle of HepG2.2.15 or HepAD38 cells in good exponential growth state was taken, washed once by adding 5 mL PBS, and then thereto was added 3 mL trypsin. After digesting at room temperature for 5 min, 2 mL trypsin was discarded, and then the sample was placed in a cell culture incubator and digested for 10 min. The cells were taken out from time to time and observed under a microscope (whether the cells were individually round and there was no adhesion between the cells). 10 mL complete medium was added to terminate the digestion. After pipetting into a single cell suspension, 10 μL of the cell suspension was taken out for cell counting with a cell counter, and then diluted with a complete medium and adjusted to a cell density of 1*10^5 cells/mL. Then the cell suspension was seeded at 1 mL/well in a 24-well plate with a multi-channel pipette (the 24-well plate was coated with 50 μg/mL Collagen I solution in advance), and cultured in a constant temperature CO2 incubator for 48 h.
(§5) Different compounds dissolved in DMSO were subjected to two-fold gradient dilution (10 concentrations in total) with complete medium. The compound was added, and fresh medium containing the compound was used to replace the spent medium every 72 hours. The cells were treated with the compound for 6 days. After the supernatant was siphoned off, 300 μL lysate (10 mM Tris-HCl, 1 mM EDTA, and 1% NP-40) was added to each well. After lysing at room temperature for 10 min, DNA was extracted, and HBV DNA in the intracellular viral capsid was measured by real-time fluorescence quantitative PCR. The inhibition rate was calculated based on the Ct value, and the EC50 value was calculated by the four-parameter method.
In general terms: Real-time PCR tracks product formation cycle by cycle.

The next series deals with HBV DNA in HepAD38 cells. Put plainly: In vitro cell HBV DNA inhibitory activity (anti-HBV activity) in HepAD38 cells. The class given is cell-based. The note with it: Hepatitis B virus, 144 h; anti-HBV activity in HepAD38 cells, 6 days treatment, intracellular capsid HBV DNA by qPCR; read-out: EC50. On the procedure: as §4, §5
The nature of series [7]: In vitro cytotoxicity (CCK-8) in HepAD38 cells. The class given is cell-based. To be noted: human. On the procedure: as §3
The nature of series [8]: In vivo pharmacokinetics (PK) study in mice. To be noted: ICR mice, po 30 mg/kg. On the procedure:
ICR mice, weighing 18-20 g, were randomly divided into groups of three mice each after 3 to 5 days' acclimatization, and a series of the compounds were administered intragastrically to each group at a dose of 30 mg/kg. The test animals (ICR mice) were fasted for 12 hours before the administration and fed 4 hours after the administration. They were free to access water before and after the experiment. After the intragastric administration, about 0.1 mL of blood was collected from the orbits. Within 30 minutes after anticoagulation with EDTA-K2, the plasma was separated by centrifugation at 4° C. and 4000 rpm for 10 minutes. Immediately after collecting all plasma, it was stored at −20° C. for testing. 20 μL of the plasma sample to be tested and standard curve sample were pipetted, and then thereto was added 200 μL of an acetonitrile solution containing an internal standard (diazepam 20 mg/mL). The resulting mixture was oscillated and mixed uniformly for 5 min, and then centrifugated at 12000 rpm for 10 min. 75 μL supernatant was pipetted, and 75 μL ultrapure water was added thereto for dilution, and mixed evenly. 1 μL of the resulting solution was pipetted for LC/MS/MS determination.

Structures are written as SMILES. In brackets after ≈: the same amount, converted by molar mass.

The compound `Cc1c(C(=O)Nc2ccc(F)c(C#N)c2)c(C)n(C)c1C(=O)C(=O)NC1(C)COC1` [Example 6, N-(3-cyano-4-fluorophenyl)-1,2,4-trimethyl-5-(2-(3-methyloxetan-3-ylamino)-2-oxoacetyl)-1H-pyrrole-3-carboxamide] returned a solubility at 16 h in [1] of 81.8 µM (≈ 33.7 µg/mL). Further, the “Remaining (%) at 60 min” value stood at 79.1% in series [2], 55% in [3] and 74.9% in [5]. The 50% cytotoxic concentration (CC50) at 6 days in series [4] and in series [7] was more than 100000 nM throughout. Also, the EC50 (in series [6]; in the series with HBV DNA in HepAD38 cells) was 10 to 50 nM each time.

`Cc1c(C(=O)Nc2ccc(F)c(C#N)c2)c(C)n(C)c1C(=O)C(=O)NC1CCOC1` (stereo not drawn) [Example 7, N-(3-cyano-4-fluorophenyl)-1,2,4-trimethyl-5-(2-oxo-2-((tetrahydrofuran-3-yl)amino)acetyl)-1H-pyrrole-3-carboxamide] returned a solubility at 16 h in series [1] of 19.8 µM (≈ 8.17 µg/mL). Further, the “Remaining (%) at 60 min” value in series [2] stood at 83.8%; in series [3], 81.6%; in series [5] it was 70.5%. For the same compound, the CC50 at 6 days in [4] and in series [7] was more than 100000 nM throughout. The EC50 is 10 to 50 nM in series [6] and less than 10 nM with HBV DNA in HepAD38 cells.

With `Cc1c(C(=O)Nc2ccc(F)c(C#N)c2)c(C)n(C)c1C(=O)C(=O)N[C@H](C)C(F)(F)F` [Example 11], in series [1], the solubility at 16 h turned out to be 7.5 µM (≈ 3.29 µg/mL). The results for the “Remaining (%) at 60 min” value in series [3] and in series [5] were 47.7% and 56.8%, respectively. In addition, the CC50 at 6 days in [4] and in series [7] was more than 100000 nM throughout. Also, the EC50 (in series [6]; with HBV DNA in HepAD38 cells) was less than 10 nM each time.

In the case of `Cc1c(C(=O)Nc2ccc(F)c(C#N)c2)c(C)n(C)c1C(=O)C(=O)NC(C)(C)C` [Example 13, 5-(2-(tert-butylamino)-2-oxoacetyl)-N-(3-cyano-4-fluorophenyl)-1,2,4-trimethyl-1H-pyrrole-3-carboxamide], in the series on HBV DNA in HepAD38 cells, the concentration for a half-maximal effect (EC50) was less than 10 nM. The “Liver AUC(0-6 h)” value in series [8] (0.25 h, 1 h, 6 h) is 5834 ng/g. Further, the “Plasma AUC(0-6 h)” value in series [8] (blood at 0.25 h, 1 h, 6 h) worked out at 1759 ng/mL. In series [8] (mouse, liver/blood, AUC(0-6 h), read-out: Liver to blood ratio), the Kp turned out to be 3.32.
